These results are taken from patent publication US12435060B2, “Acylamino bridged heterocyclic compound, and composition and application thereof” (BEIJING SCITECH-MQ PHARMACEUTICALS LIMITED, priority 2019, dated 2025).

In the assay the test system is HT29 cells. In words: Inhibition of cell necrosis (CCK8 method), induced programmed necrosis of HT29 cells. The assay is classed as cell-based. The settings on record: Homo sapiens, HT-29; rescue from necrosis induced by TNF-α 20 ng/mL, AT-406 1 μM, Z-VAD-FMK 20 μM; 16-20 hours; CCK-8, OD 450 nm. The procedure, abridged: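 HT29 cells in McCOY's 5A with 10% FBS were pre-treated for 30 min with compound (9 fourfold steps, 25000 to 0.38 nM final, 0.25% DMSO). Necrosis was then induced with TNF-α 20 ng/mL, AT-406 1 μM and Z-VAD-FMK 20 μM for 16-20 h. Viability was read by CCK-8 OD450, normalized between uninduced and induced wells, and IC50 was curve-fitted.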
(Tetrazolium dyes change colour on reduction, which living cells bring about.)

The term IC50 denotes the concentration that gives 50% inhibition. Read a low IC50 as inhibition by little substance. With `Cc1ccc(OCCCC(C)(C)O)cc1-c1ccnc(NC(=O)c2nnc(CC3CCC(F)(F)CC3)[nH]2)c1` [Example 178, 5-((4,4-difluorocyclohexyl)methyl)-N-(4-(5-((4-hydroxy-4-methylpentyl)oxy)-2-methylphenyl)pyridin-2-yl)-4H-1,2,4-triazole-3-carboxamide], the half-inhibitory concentration (IC50) was not above 100 nM.

The compound `Cc1ccc(OCCCC(C)(C)O)cc1-c1ccnc(NC(=O)c2nnc(CC3CC4CCC3C4)[nH]2)c1` (centres unmarked) [Example 179, 5-(bicyclo[2.2.1]heptan-2-ylmethyl)-N-(4-(5-((4-hydroxy-4-methylpentyl)oxy)-2-methylphenyl)pyridin-2-yl)-4H-1,2,4-triazole-3-carboxamide] showed an IC50 not above 100 nM.

`Cc1ccc(OCCCC(C)(C)O)cc1-c1ccnc(NC(=O)c2nnc(CC34CC5CC(CC(C5)C3)C4)[nH]2)c1` [Example 180, 5-(adamantan-1-ylmethyl)-N-(4-(5-((4-hydroxy-4-methylpentyl)oxy)-2-methylphenyl)pyridin-2-yl)-4H-1,2,4-triazole-3-carboxamide] registered an IC50 not above 100 nM.

As for `Cc1ccc(OCCCC(C)(C)O)cc1-c1ccnc(NC(=O)c2nnc(CN3CCOCC3)[nH]2)c1` [Example 181, N-(4-(5-((4-hydroxy-4-methylpentyl)oxy)-2-methylphenyl)pyridin-2-yl)-5-(morpholinomethyl)-4H-1,2,4-triazole-3-carboxamide], the IC50 was 1000 to 10000 nM.

On to `Cc1ccc(OCCCC(C)(C)O)cc1-c1ccnc(NC(=O)c2nnc(CCc3ccccc3)[nH]2)c1` [Example 182, N-(4-(5-((4-hydroxy-4-methylpentyl)oxy)-2-methylphenyl)pyridin-2-yl)-5-phenethyl-4H-1,2,4-triazole-3-carboxamide], for which the half-maximal inhibitory concentration (IC50) was in the range of 100 to 1000 nM.

`Cc1ccc(OCCCC(C)(C)O)cc1-c1ccnc(NC(=O)c2nnc(Cc3ccccc3F)[nH]2)c1` [Example 183, 5-(2-fluorobenzyl)-N-(4-(5-((4-hydroxy-4-methylpentyl)oxy)-2-methylphenyl)pyridin-2-yl)-4H-1,2,4-triazole-3-carboxamide] showed a concentration for half-maximal inhibition (IC50) not above 100 nM.

`Cc1ccc(OCCCC(C)(C)O)cc1-c1ccnc(NC(=O)c2nnc(Cc3cccc(F)c3)[nH]2)c1` [Example 184, 5-(3-fluorobenzyl)-N-(4-(5-((4-hydroxy-4-methylpentyl)oxy)-2-methylphenyl)pyridin-2-yl)-4H-1,2,4-triazole-3-carboxamide] returned a half-maximal inhibitory concentration (IC50) not above 100 nM.

Take `Cc1ccc(OCCCC(C)(C)O)cc1-c1ccnc(NC(=O)c2nnc(Cc3cccc(Cl)c3)[nH]2)c1` [Example 185, 5-(3-chlorobenzyl)-N-(4-(5-((4-hydroxy-4-methylpentyl)oxy)-2-methylphenyl)pyridin-2-yl)-4H-1,2,4-triazole-3-carboxamide]: the concentration for half-maximal inhibition (IC50) was not above 100 nM.

Compound `COc1cccc(Cc2nnc(C(=O)Nc3cc(-c4cc(OCCCC(C)(C)O)ccc4C)ccn3)[nH]2)c1` [Example 186, 5-(3-methoxybenzyl)-N-(4-(5-((4-hydroxy-4-methylpentyl)oxy)-2-methylphenyl)pyridin-2-yl)-4H-1,2,4-triazole-3-carboxamide] displayed an IC50 of 100 to 1000 nM.

In turn, `Cc1ccc(OCCCC(C)(C)O)cc1-c1ccnc(NC(=O)c2nnc(Cc3cccc(C#N)c3)[nH]2)c1` [Example 187, 5-(3-cyanobenzyl)-N-(4-(5-((4-hydroxy-4-methylpentyl)oxy)-2-methylphenyl)pyridin-2-yl)-4H-1,2,4-triazole-3-carboxamide] returned an IC50 not above 100 nM.

Consider `Cc1ccc(OCCCC(C)(C)O)cc1-c1ccnc(NC(=O)c2nnc(Cc3ccc(F)cc3)[nH]2)c1` [Example 188, 5-(4-fluorobenzyl)-N-(4-(5-((4-hydroxy-4-methylpentyl)oxy)-2-methylphenyl)pyridin-2-yl)-4H-1,2,4-triazole-3-carboxamide], for which the IC50 was not above 100 nM.

On to `Cc1ccc(OCCCC(C)(C)O)cc1-c1ccnc(NC(=O)c2nnc(Cc3ccc(Cl)cc3)[nH]2)c1` [Example 189, 5-(4-chlorobenzyl)-N-(4-(5-((4-hydroxy-4-methylpentyl)oxy)-2-methylphenyl)pyridin-2-yl)-4H-1,2,4-triazole-3-carboxamide], for which the IC50 is not above 100 nM.

On to `COc1ccc(Cc2nnc(C(=O)Nc3cc(-c4cc(OCCCC(C)(C)O)ccc4C)ccn3)[nH]2)cc1` [Example 190, 5-(4-methoxybenzyl)-N-(4-(5-((4-hydroxy-4-methylpentyl)oxy)-2-methylphenyl)pyridin-2-yl)-4H-1,2,4-triazole-3-carboxamide], for which the IC50 was 100 to 1000 nM.

In the case of `Cc1ccc(OCCCC(C)(C)O)cc1-c1ccnc(NC(=O)c2nnc(Cc3ccc(C#N)cc3)[nH]2)c1` [Example 191, 5-(4-cyanobenzyl)-N-(4-(5-((4-hydroxy-4-methylpentyl)oxy)-2-methylphenyl)pyridin-2-yl)-4H-1,2,4-triazole-3-carboxamide], the IC50 lay in the range of 100 to 1000 nM.

Compound `Cc1ccc(OCCCC(C)(C)O)cc1-c1ccnc(NC(=O)c2nnc(Cc3ccc(F)c(F)c3)[nH]2)c1` [Example 192, 5-(3,4-difluorobenzyl)-N-(4-(5-((4-hydroxy-4-methylpentyl)oxy)-2-methylphenyl)pyridin-2-yl)-4H-1,2,4-triazole-3-carboxamide] showed an IC50 not above 100 nM.

`CC(C)(O)CCCOc1ccc(C#N)c(-c2ccnc(NC(=O)c3nnc(Cc4ccccc4)[nH]3)c2)c1` [Example 193, 5-benzyl-N-(4-(2-cyano-5-((4-hydroxy-4-methylpentyl)oxy)phenyl)pyridin-2-yl)-4H-1,2,4-triazole-3-carboxamide] came in with a 50% inhibitory concentration (IC50) not above 100 nM.

In the case of `CC(C)(O)CCCOc1ccc(C(F)(F)F)c(-c2ccnc(NC(=O)c3nnc(Cc4ccccc4)[nH]3)c2)c1` [Example 194, 5-benzyl-N-(4-(5-((4-hydroxy-4-methylpentyl)oxy)-2-(trifluoromethyl)phenyl)pyridin-2-yl)-4H-1,2,4-triazole-3-carboxamide], the concentration for half-maximal inhibition (IC50) is not above 100 nM.

In turn, `CC(C)(C)OCCOc1ccc(C=O)c(-c2ccnc(NC(=O)c3nnc(Cc4ccccc4)[nH]3)c2)c1` [Example 195, 5-benzyl-N-(4-(5-(2-(tert-butoxy)ethoxy)-2-formylphenyl)pyridin-2-yl)-4H-1,2,4-triazole-3-carboxamide] returned an IC50 not above 100 nM.

Turning to `COc1ccc(C)c(-c2cncc(NC(=O)c3nnc(Cc4ccccc4)[nH]3)c2)c1` [Example 196, 5-benzyl-N-(5-(5-methoxy-2-methylphenyl)pyridin-3-yl)-4H-1,2,4-triazole-3-carboxamide], the IC50 was more than 10000 nM.

For the compound `CCOc1ccc(C)c(-c2cncc(NC(=O)c3nnc(Cc4ccccc4)[nH]3)c2)c1` [Example 197, 5-benzyl-N-(5-(5-ethoxy-2-methylphenyl)pyridin-3-yl)-4H-1,2,4-triazole-3-carboxamide], the IC50 is more than 10000 nM.

`CCCCOc1ccc(C)c(-c2ccnc(NC(=O)c3nnc(Cc4ccccc4)[nH]3)c2)c1` [Example 198, 5-benzyl-N-(4-(5-butoxy-2-methylphenyl)pyridin-2-yl)-4H-1,2,4-triazole-3-carboxamide] yielded a half-maximal inhibitory concentration (IC50) of 100 to 1000 nM.

`Cc1ccc(C(C)(C)O)cc1-c1ccnc(NC(=O)c2nnc(Cc3ccccc3)[nH]2)c1` [Example 199, 5-benzyl-N-(4-(5-(2-hydroxypropan-2-yl)-2-methylphenyl)pyridin-2-yl)-4H-1,2,4-triazole-3-carboxamide] yielded an IC50 of 1000 to 10000 nM.

Turning to `Cc1ccc(OCCCC(C)(C)O)cc1-c1ccnc(NC(=O)c2nnc(Cc3cc(F)cc(F)c3)[nH]2)c1` [Example 200, 5-(3,5-difluorobenzyl)-N-(4-(5-((4-hydroxy-4-methylpentyl)oxy)-2-methylphenyl)pyridin-2-yl)-4H-1,2,4-triazole-3-carboxamide], the IC50 is not above 100 nM.

Take `Cc1ccc(OCCCC(C)(C)O)cc1-c1ccnc(NC(=O)c2nnc(Cc3ccc(F)cc3F)[nH]2)c1` [Example 201, 5-(2,4-difluorobenzyl)-N-(4-(5-((4-hydroxy-4-methylpentyl)oxy)-2-methylphenyl)pyridin-2-yl)-4H-1,2,4-triazole-3-carboxamide]: the 50% inhibitory concentration (IC50) was not above 100 nM.

In turn, `Cc1ccc(OCCCC(C)(C)O)cc1-c1ccnc(NC(=O)c2nnc(Cc3cccc(F)c3F)[nH]2)c1` [Example 202, 5-(2,3-difluorobenzyl)-N-(4-(5-((4-hydroxy-4-methylpentyl)oxy)-2-methylphenyl)pyridin-2-yl)-4H-1,2,4-triazole-3-carboxamide] showed an IC50 not above 100 nM.

In turn, `Cc1ccc(OCCCC(C)(C)O)cc1-c1ccnc(NC(=O)c2nnc(Cc3cc(F)ccc3F)[nH]2)c1` [Example 203, 5-(2,5-difluorobenzyl)-N-(4-(5-((4-hydroxy-4-methylpentyl)oxy)-2-methylphenyl)pyridin-2-yl)-4H-1,2,4-triazole-3-carboxamide] had a half-maximal inhibitory concentration (IC50) not above 100 nM.

In turn, `Cc1ccc(OCCCC(C)(C)O)cc1-c1ccnc(NC(=O)c2nnc(Cc3cc(Cl)ccc3F)[nH]2)c1` [Example 204, 5-(5-chloro-2-fluorobenzyl)-N-(4-(5-((4-hydroxy-4-methylpentyl)oxy)-2-methylphenyl)pyridin-2-yl)-4H-1,2,4-triazole-3-carboxamide] had a concentration for half-maximal inhibition (IC50) not above 100 nM.

As to `Cc1ccc(OCCCC(C)(C)O)cc1-c1ccnc(NC(=O)c2nnc(Cc3cc(F)cc(Cl)c3)[nH]2)c1` [Example 205, 5-(5-chloro-3-fluorobenzyl)-N-(4-(5-((4-hydroxy-4-methylpentyl)oxy)-2-methylphenyl)pyridin-2-yl)-4H-1,2,4-triazole-3-carboxamide], the IC50 was in the range of 100 to 1000 nM.

`Cc1ccc(OCCCC(C)(C)O)cc1-c1ccnc(NC(=O)c2nnc(Cc3ccc(F)c(Cl)c3)[nH]2)c1` [Example 206, 5-(3-chloro-4-fluorobenzyl)-N-(4-(5-((4-hydroxy-4-methylpentyl)oxy)-2-methylphenyl)pyridin-2-yl)-4H-1,2,4-triazole-3-carboxamide] had a concentration for half-maximal inhibition (IC50) of 100 to 1000 nM.
